Laboratory results from PMC6943527, “Are the Hydantoin-1,3,5-triazine 5-HT6R Ligands a Hope to a Find New Procognitive and Anti-Obesity Drug? Considerations Based on Primary In Vivo Assays and ADME-Tox Profile In Vitro” (Molecules, 2019).

What was measured:
[1] = Novel object recognition (NOR) test; format: in vivo, male Wistar rats; conditions: rats
Procedure: The experiments were performed on male Wistar rats (200–220 g) obtained from an accredited animal facility at the Jagiellonian University Medical College, Poland. The animals were housed in group of four in controlled environment (ambient temperature 21 ± 2 °C; relative humidity 50%–60%; 12-h light/dark cycles (lights on at 8:00). Standard laboratory food (LSM-B) and filtered water were freely available. Animals were randomly assigned to treatment groups. All the experiments were performed by two observers unaware of the studied treatment between 9:00 and 14:00 on separate groups of animals. All animals were used only once. Procedures involving animals and their care were conducted in accordance with current European Community and Polish legislation on animal experimentation. Additionally, all efforts were made to minimize animal suffering and to use only the number of animals necessary to produce reliable scientific data. […]
The animals explored the objects by looking, licking, sniffing or touching the object but not when leaning against, standing or sitting on the object. […] The exploration time of the objects was measured by blind experimenter. Based on exploration time (E) of the two objects during T2, the discrimination index (DI) was calculated according to the formula: DI = (EB − EA)/(EA + EB). […]

[2] = Elevated plus-maze (EPM) test; format: in vivo, male Wistar rats; conditions: for Total distance / X Ambulation / Y Ambulation: mean ± SEM
Procedure: The experiments were performed on male Wistar rats (200–220 g) obtained from an accredited animal facility at the Jagiellonian University Medical College, Poland. The animals were housed in group of four in controlled environment (ambient temperature 21 ± 2 °C; relative humidity 50%–60%; 12-h light/dark cycles (lights on at 8:00). Standard laboratory food (LSM-B) and filtered water were freely available. Animals were randomly assigned to treatment groups. All the experiments were performed by two observers unaware of the studied treatment between 9:00 and 14:00 on separate groups of animals. All animals were used only once. Procedures involving animals and their care were conducted in accordance with current European Community and Polish legislation on animal experimentation. Additionally, all efforts were made to minimize animal suffering and to use only the number of animals necessary to produce reliable scientific data. The experimental protocols and procedures described in this manuscript were approved by the I Local Ethics Commission in Cracow (no 200/2018), complied with the European Communities Council Directive of 24 November 1986 (86/609/EEC), and were in accordance with the 1996 National Institutes of Health Guide for the Care and Use of Laboratory Animals.
All compounds were suspended in 1% Tween 80 immediately before administration in a volume of 2 mL/kg. Compounds were intraperitoneally administered 60 min before testing. Control animals received vehicle (1% Tween 80) according to the same schedule.
The testing procedure was based on a method described by. The plus-maze apparatus (an automated device produced by Campden Instruments Ltd. (United Kingdom) was made of durable, high density, non-porous black plastic, elevated to a height of 50 cm, and consisted of two open arms (50 × 10 cm) and two closed arms (50 × 10 cm, and 30 cm high walls) arranged so that the two arms of each type were opposite each other. The floor of the plus-maze was made of infrared transparent material, which means that there were no visible sensors. The plus-maze apparatus was connected to PC software by a control chassis. The experiments were conducted in a darkened room, and only the center of the maze was illuminated with low-intensity light (30 lux measured on the maze level). Each rat was gently placed in the center of the plus-maze, facing one of the closed arms, immediately after a 5-min adaptation period in a plastic black box (60 × 60 × 35 cm), to increase the overall activity in the EPM. During a 5-min test period, an automated motor monitor system recorded the number of entries into the closed and open arms and the time spent in either type of arm. The device counted an effective arm-entry when the four paws of a rat were into any arm. The maze was thoroughly cleaned after each trial. The EPM test is an “unconditional” anxiety-like test based on rodents’ natural aversion to heights and open space.
The experiment was performed using an EPM apparatus (details see above). Total ambulation (the total distance covered by a rat and ambulation along the X and Y axes) was taken into account to discern drug effects on general activity from those on open-arm exploration during a 5-min test period (i.e., the time equal to the observation period in the EPM test). Rats’ behavior was not videotaped during the test.

D2 = target: D2; parameters: method as in PMID 30282913; conditions: radioligand binding, average of at least two independent experiments; read-out: Ki D2 [3H]-Raclopride; cited from earlier work
[3] = Food and water intake, rats fed standard diet only; format: in vivo, male Wistar rats; conditions: 5 mg/kg b.w. i.p., vs control group
Procedure: The experiments were carried out on male Wistar rats. Their initial body weight was 210–230 g. The animals were housed in pairs in plastic cages in constant temperature facilities exposed to a light–dark cycle; water and food were available ad libitum. The control and experimental groups consisted of eight animals each. All experiments were conducted according to the guidelines of the Animal Use and Care Committee of the Jagiellonian University and were approved for realization (2013 and 2015, Poland; Permissions No 136/2013 and 258/2015).
The standard diet contained 100 g of feed—280 kcal.
Male Wistar rats (190–220 g) were housed in pair. The control group (standard diet + vehicle) received vehicle (1% Tween 80, i.p.), while the test group (standard diet + KMP-10 5 mg) was intraperitoneally injected with KMP-10 at the dose 5 mg/kg b.w./day dissolved in 1% Tween 80. The intakes of food and water were evaluated daily.

[4] = parameters: method as in PMID 30282913; conditions: overeating model, vs control group; cited from earlier work
5-HT6 = target: 5-HT6; parameters: method as in PMID 30282913; conditions: radioligand binding, average of at least two independent experiments; read-out: Ki 5-HT6 [3H]-LSD; cited from earlier work
[5] = 0.3 mg/kg i.p., 60 min before test, 5-min session
[6] = 1 mg/kg i.p., 60 min before test, 5-min session
[7] = 3 mg/kg i.p., 60 min before test, 5-min session

CN1CCN(c2nc(N)nc(CN3C(=O)NC(C)(c4ccc5ccccc5c4)C3=O)n2)CC1 (stereo not drawn) [KMP-10, 3-((4-amino-6-(4-methylpiperazin-1-yl)-1,3,5-triazin-2-yl)methyl)-5-methyl-5-(naphthalen-2-yl)imidazolidine-2,4-dione]
Memory deficits induced by scopolamine in NOR test ([1]; full dose-range 0.3–3 mg/kg i.p.): significantly and dose-dependently reversed
Memory impairment induced by MK-801 in NOR test, discrimination index ([1]; some activity at 1 mg/kg i.p.): did not reach a statistically significant level
Total distance [2, 5]: 3240 ± 209 cm
X Ambulation [2, 5]: 116 ± 18
Y Ambulation [2, 5]: 98 ± 20
Total distance [2, 6]: 4558 ± 205 cm
X Ambulation [2, 6]: 152 ± 17
Y Ambulation [2, 6]: 63 ± 12
Total distance [2, 7]: 3881 ± 298 cm
X Ambulation [2, 7]: 131 ± 18
Y Ambulation [2, 7]: 133 ± 25
Anxiolytic-like activity in EPM test ([2]; rats, doses of 1 and 3 mg/kg i.p., 60 min before test): showed anxiolytic-like activity
Locomotor activity in EPM test ([2]; rats, i.p.): no changes
Percentage of time spent in the open arms ([2]; rats, i.p., 5-min session, ANOVA F(3,22) = 15.774, p < 0.0001): increased
Time spent in the open arms ([2]; rats, i.p., 5-min session, ANOVA F(3,22) = 17.100, p < 0.0001): increased
Distance travelled in the open arms ([2]; rats, i.p., 5-min session, ANOVA p < 0.01): increased
Ki (D2): 4.25 µM
Amount of calories consumed [3]: significantly reduced
Water intake [3]: significantly lower
Increase of body mass [4]: significantly lower increase
Ki (5-HT6): 0.087 µM
